# According to patent EP1561465A2, “Methods of use of fluoroquinolone compounds against bacteria” (LG Life Sciences, Ltd., priority 1999, dated 2001):
# Where “and” joins values, the source holds several entries; their conditions need not be identical. Equal entries are not always repeated. Where two headings read alike, the source gives them in different places.
# How the values were obtained:
# Hafnia alvei [1] = assay: MIC by agar dilution (NCCLS M7-A4), 288 enteropathogenic isolates, gemifloxacin and 15 other antimicrobials; format: cell-based; settings: Hafnia alvei
# Hafnia alvei [2] = assay: MIC by agar dilution (NCCLS M7-A4), 288 enteropathogenic isolates, eight quinolones; format: cell-based
# Campylobacter jejuni [3] = assay: MIC by agar dilution (NCCLS M7-A4), 5% sheep blood, microaerophilic 48 h; format: cell-based
# Campylobacter jejuni [4] = assay: MIC by agar dilution (NCCLS M7-A4), 288 enteropathogenic isolates, gemifloxacin and 15 other antimicrobials; settings: Campylobacter jejuni
# Aeromonas spp. [5] = assay: MIC by agar dilution (NCCLS M7-A4), 288 enteropathogenic isolates, eight quinolones; format: cell-based
# Aeromonas spp. [6] = assay: MIC by agar dilution (NCCLS M7-A4), 288 enteropathogenic isolates, gemifloxacin and 15 other antimicrobials; format: cell-based; settings: for MIC: Aeromonas
# Yersinia enterocolitica [7] = assay: MIC by agar dilution (NCCLS M7-A4), 288 enteropathogenic isolates, eight quinolones; format: cell-based
# Shigella spp. [8] = assay: as above; format: cell-based
# Salmonella spp. [9] = assay: as above; format: cell-based
# Salmonella spp. [10] = assay: MIC by agar dilution (NCCLS M7-A4), 288 enteropathogenic isolates, gemifloxacin and 15 other antimicrobials; format: cell-based
# Shigella spp. [11] = assay: as above; format: cell-based; settings: Shigella spp. N= 21
# Description: [A. hydrophila (12), and A. sobria (4)], and 91 Campylobacter jejuni. […] The strains were stored in skimmed-milk at -80 °C until studied.
# The plates were incubated aerobically at 35 °C for 24 h, except for Campylobacter jejuni, where a microaerophilic atmosphere was obtained by using Campy Pack (Becton Dickinson, Cockeysville, MD, USA), and incubation was for 48 h. All organisms were tested with an inoculum of ≅ 10^4 cfu/spot. MICs were defined as the lower antibiotic concentration with no visible growth.
# Yersinia enterocolitica [12] = assay: as above; format: cell-based; settings: Yersinia enterocolitica
# Enterococcus faecium = assay: MIC by agar macrodilution (NCCLS), 373 Gram positive isolates, Athens 1998; format: cell-based
# Staphylococcus aureus = assay: as above; format: cell-based; settings: Methicillin-susceptible Staphylococcus aureus (n = 85)
# Enterococcus faecalis = assay: as above; format: cell-based
# Streptococcus pneumoniae = assay: MIC by E-test (broth microdilution for gemifloxacin), 107 pneumococcal carrier isolates, Athens 1998; format: cell-based; settings: E-test; for MIC Range: in µg/mL (unit assumed); for MIC50 / MIC90: unit assumed
# Description: Susceptibility testing was performed by agar dilution or epsilometer method (E-test), as recommended by the NCCLS. […] The susceptibility profiles of the strains were assessed using the Epsilometer method (E-test). The isolates were subdivided into two groups according to their penicillin susceptibility patterns (penicillin-susceptible and penicillin-intermediate.
# [13] = 24 h, read-out: MIC (mg/L) Range
# [14] = number of isolates at MIC […], n = 14
# [15] = number of isolates with MIC […] µg/ml
# [16] = number of isolates with MIC […]
# [17] = number of isolates at MIC […], n = 81
# [18] = Penicillin-intermediate S. pneumoniae (n = 24)
# [19] = Penicillin-susceptible S. pneumoniae (n = 107)
molecule,measurement,setting,value
"CCn1cc(C(=O)O)c(=O)c2ccc(C)nc21 [Nalidixic acid, nalidixic acid]",MIC,Hafnia alvei [1]; [13],1 to 2 mg/L
same,MIC,Hafnia alvei [1]; read-out: MIC (mg/L) 50%,2 mg/L
same,MIC,Hafnia alvei [1]; read-out: MIC (mg/L) 90%,2 mg/L
same,Non-susceptibility rate,Hafnia alvei [2]; H. alvei,0%
same,MIC50,Hafnia alvei [2]; Hafnia alvei,2 µg/mL
same,MIC90,Hafnia alvei [2]; Hafnia alvei,2 µg/mL
same,% Susceptible,Hafnia alvei [2]; Hafnia alvei (n = 32),100%
same,MIC Range,Hafnia alvei [2]; Hafnia alvei (n = 32),1 to 2 µg/mL
same,Non-susceptibility rate,Campylobacter jejuni [3]; C. jejuni,69.24%
same,MIC50,Campylobacter jejuni [3]; Campylobacter jejuni,> 128 µg/mL
same,MIC90,Campylobacter jejuni [3]; Campylobacter jejuni,> 128 µg/mL
same,% Susceptible,Campylobacter jejuni [3]; Campylobacter jejuni (n=91),30.76%
same,MIC,Campylobacter jejuni [4]; read-out: MIC (mg/L) 50%,> 128 mg/L
same,MIC,Campylobacter jejuni [4]; read-out: MIC (mg/L) 90%,> 128 mg/L
same,MIC50,Aeromonas spp. [5]; Aeromonas,0.12 µg/mL
same,MIC90,Aeromonas spp. [5]; Aeromonas,0.25 µg/mL
same,Non-susceptibility rate,Aeromonas spp. [5]; Aeromonas spp.,6.25% and 6.3%
same,% Susceptible,Aeromonas spp. [5]; Aeromonas spp. (n = 16),93.75%
same,Rates of non-susceptible microorganisms,Aeromonas spp. [6]; Aeromonas spp.,6%
same,MIC,Aeromonas spp. [6]; read-out: MIC (mg/L) 50%,0.12 mg/L
same,MIC,Aeromonas spp. [6]; read-out: MIC (mg/L) 90%,0.25 mg/L
same,Non-susceptibility rate,Yersinia enterocolitica [7]; Y. enterocolitica,4.5%
same,MIC50,Yersinia enterocolitica [7]; Yersinia enterocolitica,2 µg/mL
same,MIC90,Yersinia enterocolitica [7]; Yersinia enterocolitica,2 µg/mL
same,% Susceptible,Yersinia enterocolitica [7]; Yersinia enterocolitica (n = 22),95.5%
same,Non-susceptibility rate,Shigella spp. [8]; Shigella spp.,0%
same,% Susceptible,Shigella spp. [8]; Shigella spp. (n = 21),100%
same,MIC50,Shigella spp. [8]; Shigella spp. (n = 21),1 µg/mL
same,MIC90,Shigella spp. [8]; Shigella spp. (n = 21),2 µg/mL
same,MIC Range,Shigella spp. [8]; Shigella spp. (n = 21),1 to 2 µg/mL
same,MIC,Salmonella spp. [9],> 128 µg/mL
same,MIC,Salmonella spp. [9]; Salmonella,> 128 µg/mL
same,MIC50,Salmonella spp. [9]; Salmonella,4 µg/mL
same,MIC90,Salmonella spp. [9]; Salmonella,> 128 µg/mL
same,Non-susceptibility rate,Salmonella spp. [9]; Salmonella spp.,27%
same,% Susceptible,Salmonella spp. [9]; Salmonella spp. (n = 106),73%
same,MIC,Salmonella spp. [10],> 128 mg/L
same,MIC,"Salmonella spp. [10]; S. hadar(2), isolates with MICs for ciprofloxacin ≥[…]",>128 mg/L
same,MIC,Salmonella spp. [10]; Salmonella,> 128 mg/L
same,Rates of non-susceptible microorganisms,Salmonella spp. [10]; Salmonella spp.,27%
same,MIC,"Salmonella spp. [10]; Salmonella, read-out: MIC (mg/L) 50%",4 mg/L
same,MIC,"Salmonella spp. [10]; Salmonella, read-out: MIC (mg/L) 90%",> 128 mg/L
same,MIC,Shigella spp. [11]; [13],1 to 2 mg/L
same,MIC,Shigella spp. [11]; read-out: MIC (mg/L) 50%,1 mg/L
same,MIC,Shigella spp. [11]; read-out: MIC (mg/L) 90%,2 mg/L
same,Rates of non-susceptible microorganisms,Yersinia enterocolitica [12],5%
same,MIC,Yersinia enterocolitica [12]; read-out: MIC (mg/L) 50%,2 mg/L
same,MIC,Yersinia enterocolitica [12]; read-out: MIC (mg/L) 90%,2 mg/L
Teicoplanin,MIC50,Enterococcus faecium; n = 14 isolates,0.5 µg/mL
same,MIC90,Enterococcus faecium; n = 14 isolates,1 µg/mL
same,MIC Range,Enterococcus faecium; n = 14 isolates,0.25 to 4 µg/mL
same,MIC distribution (µg/ml) 0.03,"Enterococcus faecium; number of isolates at MIC 0.03 µg/ml, n = 14",0
same,MIC distribution (µg/ml) 0.06,"Enterococcus faecium; number of isolates at MIC 0.06 µg/ml, n = 14",0
same,MIC distribution (µg/ml) 0.5,"Enterococcus faecium; number of isolates at MIC 0.5 µg/ml, n = 14",4
same,MIC distribution (µg/ml) 1,"Enterococcus faecium; number of isolates at MIC 1 µg/ml, n = 14",6
same,MIC distribution (µg/ml) 2,"Enterococcus faecium; number of isolates at MIC 2 µg/ml, n = 14",0
same,MIC distribution (µg/ml) 4,"Enterococcus faecium; number of isolates at MIC 4 µg/ml, n = 14",1
same,MIC distribution (µg/ml) 8,"Enterococcus faecium; number of isolates at MIC 8 µg/ml, n = 14",0
same,MIC distribution (µg/ml) 16,"Enterococcus faecium; number of isolates at MIC 16 µg/ml, n = 14",0
same,MIC distribution (µg/ml) 0.125,Enterococcus faecium; [14],0
same,MIC distribution (µg/ml) 0.25,Enterococcus faecium; [14],3
same,MIC distribution (µg/ml) ≤0.015,"Enterococcus faecium; number of isolates at MIC ≤[…], n = 14",0
same,MIC distribution (µg/ml) ≥32,"Enterococcus faecium; number of isolates at MIC ≥32 µg/ml, n = 14",0
same,MIC50,Staphylococcus aureus,1 µg/mL
same,MIC90,Staphylococcus aureus,2 µg/mL
same,MIC Range,Staphylococcus aureus,0.5 to 8 µg/mL
same,MIC distribution (µg/ml) 0.06,Staphylococcus aureus; number of isolates with MIC 0.06 µg/ml,0
same,MIC distribution (µg/ml) 0.5,Staphylococcus aureus; number of isolates with MIC 0.5 µg/ml,26
same,MIC distribution (µg/ml) 1,Staphylococcus aureus; number of isolates with MIC 1 µg/ml,40
same,MIC distribution (µg/ml) 2,Staphylococcus aureus; number of isolates with MIC 2 µg/ml,17
same,MIC distribution (µg/ml) 4,Staphylococcus aureus; number of isolates with MIC 4 µg/ml,0
same,MIC distribution (µg/ml) 8,Staphylococcus aureus; number of isolates with MIC 8 µg/ml,2
same,MIC distribution (µg/ml) >64,Staphylococcus aureus; number of isolates with MIC >[…] µg/ml,0
same,MIC distribution (µg/ml) 16,Staphylococcus aureus; [15],0
same,MIC distribution (μg/ml) 32,Staphylococcus aureus; [15],0
same,MIC distribution (μg/ml) 64,Staphylococcus aureus; [15],0
same,MIC distribution (µg/ml) 0.125,Staphylococcus aureus; [16],0
same,MIC distribution (µg/ml) 0.25,Staphylococcus aureus; [16],0
same,MIC distribution (µg/ml) ≤0.03,Staphylococcus aureus; number of isolates with MIC ≤0.03 µg/ml,0
same,MIC50,Enterococcus faecalis; n = 81 isolates,0.5 µg/mL
same,MIC90,Enterococcus faecalis; n = 81 isolates,1 µg/mL
same,MIC Range,Enterococcus faecalis; n = 81 isolates,0.06 to 16 µg/mL
same,MIC distribution (µg/ml) 0.03,"Enterococcus faecalis; number of isolates at MIC 0.03 µg/ml, n = 81",0
same,MIC distribution (µg/ml) 0.06,"Enterococcus faecalis; number of isolates at MIC 0.06 µg/ml, n = 81",2
same,MIC distribution (µg/ml) 0.5,"Enterococcus faecalis; number of isolates at MIC 0.5 µg/ml, n = 81",35
same,MIC distribution (µg/ml) 1,"Enterococcus faecalis; number of isolates at MIC 1 µg/ml, n = 81",27
same,MIC distribution (µg/ml) 2,"Enterococcus faecalis; number of isolates at MIC 2 µg/ml, n = 81",4
same,MIC distribution (µg/ml) 4,"Enterococcus faecalis; number of isolates at MIC 4 µg/ml, n = 81",0
same,MIC distribution (µg/ml) 8,"Enterococcus faecalis; number of isolates at MIC 8 µg/ml, n = 81",0
same,MIC distribution (µg/ml) 16,"Enterococcus faecalis; number of isolates at MIC 16 µg/ml, n = 81",1
same,MIC distribution (µg/ml) 0.125,Enterococcus faecalis; [17],6
same,MIC distribution (µg/ml) 0.25,Enterococcus faecalis; [17],6
same,MIC distribution (µg/ml) ≤0.015,"Enterococcus faecalis; number of isolates at MIC ≤[…], n = 81",0
same,MIC distribution (µg/ml) ≥32,"Enterococcus faecalis; number of isolates at MIC ≥32 µg/ml, n = 81",0
same,MIC Range,Streptococcus pneumoniae; [18],0.023-0.125
same,MIC50,Streptococcus pneumoniae; [18],0.064 µg/mL
same,MIC90,Streptococcus pneumoniae; [18],0.125 µg/mL
same,MIC Range,Streptococcus pneumoniae; [19],0.023-3
same,MIC50,Streptococcus pneumoniae; [19],0.064 µg/mL
same,MIC90,Streptococcus pneumoniae; [19],0.38 µg/mL
